# Assays:
# SIRTI protein = test: Amount of SIRT1 protein in RH30 cells by Western blotting; assay type: cell-based, human; details: 30 μM, 24 hours, compared with Control group (DMSO)
# Protocol: RH30 cells (human rhabdomyosarcoma cell line; gli gene expression+, N-myc gene expression+) at 1×10^6 cell/dish were seeded and cultured in a dish containing 10 mL of a culture solution (low-glucose-containing DMEM medium (glucose concentration of 1.0 g/dL) to which 10 wt. % of FBS was added). One day later, Compound #5 was added to have a concentration of 30 μM, and the mixture was cultured for 24 hours ([Compound #5 addition group]). Compound #9, Compound #13, Compound #21, Compound #30, or Compound #35 as the present compound was added in place of Compound #5, and the mixture was cultured in the same manner, respectively, as [Compound #9 addition group], [Compound #13 addition group], [Compound #21 addition group], [Compound #30 addition group], and […].
# On the other hand, as a control, DMSO (dimethyl sulfoxide) was added to have a concentration of 0.2 wt. %, and the mixture was cultured for 24 hours ([Control group]).
# After completion of culture, the cells were recovered, disrupted by a typical method, and the amount of each of the proteins (SIRTI proteins, etc.) in the cells was detected by Western blotting. Further, the results of quantification of each band in the detection results of the Western blotting in FIG. 6 through normalization with the band of β-actin as a loading control are shown in FIG. 7.
# [1] = system: muscle cells of aged mice; test: RNA-Seq, pathway and ChIP-Atlas analysis of muscle cells of aged mice; assay type: in vivo, mouse; details: oral, 50 mg/kg/day, 2 months
# Protocol: Water-suspended Compound #5 was orally administered to C57BL6 mice (92 weeks old) at a dose of 50 mg/kg/day per kg of mouse weight for 2 months ([MA5 addition group], n=5). After 2 months of oral administration, the mice were 101 weeks old.
# In addition, water was orally administered to C57BL6 mice (92 weeks old) for 2 months ([Vehicle group], n=5). After 2 months of oral administration, the mice were 101 weeks old.
# RNA sequencing (RNA-Seq) analysis was performed on the muscle cells of aged mice in [MA5 addition group] and [Vehicle group] to identify genes whose expression levels changed (increased or decreased) in [MA5 addition group] and [Vehicle group] compared to the muscle cells of young mice before administration.
# Based on the names of genes whose expression levels increased or decreased in the aged mice of [MA5 addition group] as compared with the aged mice of [Vehicle group] in the RNA sequence (RNA-Seq) analysis, pathway analysis of genes whose expression levels varied in muscle cells of the aged mice of [MA5 addition group] was performed.
# The results of the names of the genes whose expression levels increased or decreased in the aged mice of [MA5 addition group] as compared with the aged mice of [Vehicle group] in the RNA sequence (RNA-Seq) analysis were used to perform integrated analysis with ChIP-Atlas to investigate transcription factors possibly related to these genes.
# [2] = system: cochlear cells of the inner ear of wild-type mice; test: RNA-Seq and ChIP-Atlas analysis of cochlear cells of wild-type mice; assay type: in vivo, mouse; details: wild-type C57BL6 mice, oral, 50 mg/kg/day, 2 weeks, Table 6
# Protocol: Water-suspended Compound #5 was orally administered to C57BL6 mice (6 weeks old) at a dose of 50 mg/kg/day per kg of mouse weight for 2 weeks ([MA5 addition group], n=5).
# In addition, water was orally administered to C57BL6 mice (6 weeks old) for […] ([Vehicle group], n=5).
# RNA sequence (RNA-Seq) analysis was performed on cochlear cells of the inner ear of wild-type mice of [MA5 addition group] and [Vehicle group] described above, and genes whose expression levels changed (increased or decreased) in [MA5 addition group] as compared with [Vehicle group] were identified. Using the results of these gene names, integrated analysis with ChIP-Atlas was performed to investigate transcription factors possibly related to these genes.
# [3] = system: fibrosis-related genes (aSMA and Colla1); test: Real-time PCR of fibrosis-related genes in renal tissue of α-Klotho gene-deficient mice; assay type: in vivo; details: oral, 10 mg/kg mouse weight/day, 28 to 60 days old
# Protocol: Water-suspended Compound #5 was orally administered to α-Klotho gene-deficient mice (28 days old) at a dose of 10 mg/kg mouse weight/day until 60 days old (Klotho homo KO mouse administration group, n=3).
# In addition, water was orally administered to wild-type mice (28 days old) and α-Klotho gene-deficient mice (28 days old) until 60 days old (n=3 for each of the wild-type non-administrated group and the Klotho homo KO mouse non-administrated group).
# Renal tissue was collected from each 60-day-old mouse according to a standard method, total RNA was extracted using a commercially available column extraction kit (RNeasy Micro Kit, manufactured by QIAGEN), and cDNA was synthesized from 1 μg of total RNA using ReverTra Ace(manufactured by TOYOBO CO., Ltd.). Thereafter, to quantify mRNA derived from two types of fibrosis-related genes (aSMA and Colla1) and mRNA derived from GAPDH as an internal standard, real-time PCR was performed according to a standard method using QuantStudio 5 Real-time PCR system (manufactured by Applied Biosystems) as a measuring instrument and THUNDERBIRD SYBR qPCR MasterMix (manufactured by TOYOBO CO., Ltd.) as a reaction liquid.
# [4] = Plasma metabolite analysis by CE-TOFMS in α-Klotho gene-deficient mice; assay type: in vivo; details: oral, 10 mg/kg mouse weight/day, 28 to 60 days old
# Protocol: Water-suspended Compound #5 was orally administered to α-Klotho gene-deficient mice (28 days old) at a dose of 10 mg/kg mouse weight/day until 60 days old (Klotho homo KO mouse administration group, n=2).
# In addition, water was orally administered to wild-type mice (28 days old) and α-Klotho gene-deficient mice (28 days old) until 60 days old (n=2 for each of the wild-type non-administrated group and the Klotho homo KO mouse non-administrated group).
# Plasma was prepared from each 60-day-old mouse, and the effect of administration of Compound #5 on plasma metabolites was subjected to target analysis (comprehensive analysis) by CE-TOFMS (manufactured by Human Metabolome Technologies, Inc.).
smiles,measurement,setting,value
"O=C(CC(C(=O)O)c1c[nH]c2ccccc12)c1ccc(F)cc1F (stereo not shown) [Compound #5, 4-(2,4-difluorophenyl)-2-(1H-indole-3-yl)-4-oxo-butanoic acid]",amount of SIRTI protein in cells,SIRTI protein,increased
same,MAPK cascade (pathway analysis),[1],inhibition
same,insulin signaling pathway (pathway analysis),[1],enhancement
same,longevity regulating pathway (pathway analysis),[1],enhancement
same,transcription factors associated with genes whose expression was increased (ChIP-Atlas),[1]; Table 1,"FOXO1 known as longevity genes, KLF4, which is one of reprogramming factors necessary for the production of iPS cells, and KLF2 and KLF5"
same,expression level of Klf4 Gene,[1]; vs Vehicle group,significantly increased
same,expression level of Myc Gene,[1]; vs Vehicle group,significantly increased
same,expression level of Nanog Gene,[1]; vs Vehicle group,tended to increase
same,expression level of Pou5f1 (Oct4) Gene,[1]; vs Vehicle group,tended to increase
same,expression level of Sox2 Gene,[1]; vs Vehicle group,significantly increased
same,transcription factors related to the genes whose expression increased (ChIP-Atlas),[2],SUZ^12 and EZH2
same,renal fibrosis progressing with aging (aSMA and Colla1 mRNA),[3],inhibited
same,spermidine in plasma,[4],increased

# From US20240307351A1, “AGENT FOR ANTI-AGING OR FOR CELLULAR REJUVENATION” (TOHOKU UNIVERSITY, priority 2022, published 2024)
